{"source": "paper PMC6471062", "about": "“Suppression of the Ubiquitin Pathway by Small Molecule Binding to Ubiquitin Enhances Doxorubicin Sensitivity of the Cancer Cells” (Molecules, 2019)", "key": {"UCHL1 (Homo sapiens)": {"biological_target": "UCHL1 (Homo sapiens)", "sequence (P09936 whole entry, other chains not shown)": "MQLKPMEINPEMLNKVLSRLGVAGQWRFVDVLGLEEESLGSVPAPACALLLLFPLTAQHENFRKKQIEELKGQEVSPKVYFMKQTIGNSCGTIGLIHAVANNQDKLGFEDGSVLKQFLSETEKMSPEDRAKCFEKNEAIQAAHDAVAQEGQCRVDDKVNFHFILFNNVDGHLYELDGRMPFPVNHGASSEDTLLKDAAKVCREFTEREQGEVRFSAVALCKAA", "test": "Deubiquitination assay, cleavage of GST-Ubiquitin-HA by UCHL1 (SDS-PAGE band intensity)", "assay_type": "biochemical", "method": "For in vitro ubiquitination assays, 500 µM of ubiquitin was used for each ubiquitination reaction as described previously, in the absence or presence of 50–500 µM of CR. […] The generation of GST-ubiquitin from GST-Ubiquitin-HA as the mobility shifts were analyzed on 12.5% SDS-PAGE visualized by Coomassie blue staining. Band intensities were quantified by ImageJ [55] and used to generate the IC50 curves (log inhibitor vs. normalized response with variable slope) by GraphPad Prism version 6.0 for Windows (GraphPad Software, San Diego, CA, USA, www.graphpad.com)."}, "H1299 cells [1]": {"test_system": "H1299 cells", "test": "Total ubiquitination state of non-Dox-treated cells (immunoblot, immunofluorescence)", "assay_type": "cell-based", "details": "H1299, 1.0 and 10 μM CR, 12 h", "method": "Cells were seeded in the SPL 4 wells cell culture chamber slide 24 h before experiment. Cells were treated with an indicated compound for an indicated time. The cells were fixed with 4% formaldehyde for 15 min followed by three times of PBS washing. Cells were permeabilized by incubation with PBS containing 0.5% Triton-X100 and 5% FBS for 30 min, and then blocked with blocking buffer (PBS, 5% FBS, 0.3% Triton X-100) for 1.5 h. Subsequently, cells were incubated with primary antibody at 1/200 dilution in blocking buffer overnight and then washed with blocking buffer five times (5 min each) before incubation with fluorescence-conjugated secondary antibody at 1/200 dilution in blocking buffer for 1 h. Cells were then washed with blocking buffer five times (5 min each) before incubation with DAPI for 10 min and three times washing with PBS. Slides were covered with the coverslip in the presence of mounting solution (cat # 475904, MOWIOL) and subjected to confocal imaging. Images acquired in confocal imaging were subjected to fluorescence intensity analysis using ImageJ [55]. Fluorescence signal representing a particular ubiquitin chain level was analyzed and normalized with the intensity of DAPI. Data were analyzed using GraphPad Prism version 6.0 for Windows with two tail t-test for statistical data analysis. page 6: Figure S6. Effect of CR on the ubiquitination state of none-treated cells. […]"}, "H1299 cells [2]": {"test_system": "H1299 cells", "test": "Dox-induced K48- and K63-polyubiquitination in cells (immunofluorescence staining, Western blot)", "assay_type": "cell-based", "details": "H1299, 5 or 10 μM CR 12 h pretreatment, then 5 μM Dox 12 h", "method": "Figure 6 CR inhibits Dox-induced ubiquitination in the cells. (a) Immunofluorescence staining of H1299 cells treated with or without 5 (+) and 10 (++) μM CR for 12 h followed by addition of Dox to a final concentration of 5 μM, with incubation for 12 h. The cells were subjected to immunofluorescence staining using the antibodies against K48 (αK48) and K63 polyubiquitins (αK63). (b) K48 or K63 polyubiquitin level in Figure 6a was quantified by fluorescence signal. At least seven random regions acquired in confocal images were sampled and normalized against DAPI intensity for quantification. (c) Immunoblots of samples in Figure 6a using the indicated antibodies. […] Statistical significance was calculated by the Student’s t-test (* p < 0.05, ** p < 0.01, *** p < 0.001).\nCells were seeded in the SPL 4 wells cell culture chamber slide 24 h before experiment. […] Subsequently, cells were incubated with primary antibody at 1/200 dilution in blocking buffer overnight and then washed with blocking buffer five times (5 min each) before incubation with fluorescence-conjugated secondary antibody at 1/200 dilution in blocking buffer for 1 h. […] Images acquired in confocal imaging were subjected to fluorescence intensity analysis using ImageJ [55]. Fluorescence signal representing a particular ubiquitin chain level was analyzed and normalized with the intensity of DAPI. […]"}, "H1299 cells [3]": {"test_system": "H1299 cells", "test": "Dox-induced cell death, colorimetric cell viability, H1299", "assay_type": "cell-based", "details": "10 µM CR or 5 µM NSC697923 12 h, then Dox 1.25–5.0 μM 12 h", "method": "(§1) Figure 7 CR enhances Dox sensitivity of cancer cells. (a,b) Enhancement of Dox-induced apoptosis of cancer cells by CR treatment. Dox–induced apoptosis of H1299 (a) and HCT116 (b) was quantified by colorimetric cell viability after treating 10 µM CR for 12 h followed by 12h treatment of Dox (0.0–5.0 µM). […] Caspase activity was quantified by luminogenic caspase activity assay. […] All error bars represent the standard deviation from at least four independent experiments. Statistical significance was calculated by the Student’s t-test (** p < 0.01, *** p < 0.001).\n(§2) Cell viability assays were performed as described previously. For the caspase assays, the media were removed, and cells were lysed in 200 µL lysis buffer containing 50 µL Caspase Glo 3/7 solution and incubated for 15 min. Results were observed by measuring the luminescence signal using KOMM-Nr (Berthold Technologies, Bad Wildbad, Germany) and normalized with the total protein concentration measured by the Bradford assay. Data were analyzed using GraphPad Prism version 6.0 for Windows with two tail t-test for statistical data analysis […]\n(§3) Figure S8. NSC697923 enhances Dox sensitivity of cancer cells. (a, b) Effect of NSC697923 to cancer cells’ viability in Dox treatment . Dox–induced cell death of H1299 ( a) and HCT116 ( b) was quantified by colorimetric cell viability assay after treating 5 µM NSC697923 for 12 h followed by 12h treatment of Dox (0.0 […]\nNSC697923. Caspase activity was quantified by luminogenic caspase activity assay. All error bars represent the standard deviation from at least 4 independent experiments. *, P<0.05; **, P<0.01; ***, P<0.001."}, "H1299 cells [4]": {"test_system": "H1299 cells", "test": "Luminogenic caspase activity assay (Caspase Glo 3/7), H1299", "assay_type": "cell-based", "details": "10 µM CR or 5 µM NSC697923 with Dox", "method": "as §1\nas §2, with “assay.” for “assay. Data were analyzed using GraphPad Prism version 6.0 for Windows with two tail t-test for statistical data analysis”\nas §3\nNSC697923. Caspase activity was quantified by luminogenic caspase activity assay. […]"}, "[5]": {"test": "Cell membrane permeability (inferred from intracellular action)", "details": "in contrast to CSB6B; inferred from intracellular effect on ubiquitination"}}, "data": [{"smiles": "Nc1c(/N=N/c2ccc(-c3ccc(/N=N/c4cc(S(=O)(=O)O)c5ccccc5c4N)cc3)cc2)cc(S(=O)(=O)O)c2ccccc12", "note": "[CR, Congo red]", "values": [{"measurement": "IC50", "setting": "UCHL1 (Homo sapiens)", "value": "26.9 ± 2.99", "unit": "µM"}, {"measurement": "Effect on total ubiquitination of normal (non-Dox-treated) cells", "setting": "H1299 cells [1]", "value": "slight accumulation of the polyubiquitin chains"}, {"measurement": "Effect on Dox-triggered K48 and K63 ubiquitination", "setting": "H1299 cells [2]", "value": "suppressed Dox-triggered ubiquitination in both K48 and K63"}, {"measurement": "Effect on Dox-induced cell death, H1299", "setting": "H1299 cells [3]", "value": "significantly enhanced Dox-induced cell death"}, {"measurement": "Effect on caspase activity of Dox-treated H1299 cells", "setting": "H1299 cells [4]", "value": "Enhanced caspase activity"}, {"measurement": "Cell permeability", "setting": "[5]", "value": "better cell permeability"}]}]}
